# US12595269B2, “Morpholine-like monoamine releasers” (Solvonis Therapeutics Ireland Holdings Limited, priority 2022, dated 2026)
# Like-named read-outs stand apart in the source and are kept apart here.
# Assay: Pharmacokinetic and brain penetration study, intravenous and oral administration in rats
# Format: in vivo
# Conditions: rat; for concentration at 8 h: read-out: Clast; for Vd: read-out: Vss
# Method: Methods and Procedure: The study was conducted in agreement with procedures to assure data integrity and GLP principles. Three experimental groups, as outlined below, were included in the study:
# Group 1: Exemplary compound 522A was administered via the IV route to three rats at a target dose level of 0.5 mg/kg. Blood and brain samples were collected at 2h after IV administration.
# Group 2: Exemplary compound 522A was administered via the IV route to three rats (brain penetration group) at a target dose level of 0.5 mg/kg. Blood and brain samples were collected at 2h after IV administration.
# Group 3: Exemplary compound 522A was orally administered to three rats at a target dose level of 1 mg/kg. Blood samples were collected up to 24h after oral administration.
# All test formulations were prepared on the day of administration prior to dosing, stored at room temperature, and used as soon as possible. Formulations were prepared and administered by volume for both IV and oral dosing. Actual body weights were determined on the day of dose administration, and the dose volumes were adjusted to the weight of the animal at the time of dose administration.
# Blood was collected into K3 EDTA tubes at each of the following time points post-administration: • Group 1 (ITS): 0.083, 0.33, 1, 2, 4, 6, 8, and 24 hours after dosing • Group 2 (ITS): 2 hours after dosing for terminal brain analysis • Group 3 (Oral): 0.250, 0.5, 1, 2, 4, 6, 8, and 24 hours after dosing
# All blood samples were thoroughly but gently mixed following collection and then placed on wet ice. Within 0.5 h of collection, blood was centrifuged (3000 g for 10 minutes at approximately 4° C.). Within 0.5 hours, 20 μL of each plasma sample was transferred into micronic tubes containing 80 μL of 0.1N Hepes buffer (pH 7.0-7.5). Residual plasma was transferred in micronic tubes as a second aliquot.
# Brain specimens were diluted with 4 volumes of 0. IN Hepes buffer and homogenized using the Precellys system. Blood and brain samples were assayed using an optimized method based on protein precipitation with acetonitrile followed by HPLC/MS-MS analysis. Given the unknown stability of analytes in blood and brain, Calibration standards (CS) and Quality control samples (QC) were prepared in blood and brain samples on the day of dosing and stored together with study samples. It is assumed this procedure accounted for any possible analyte degradation.
# Study samples, CS, QC, and blanks were spiked with an internal standard (IS), to improve the precision of the assay. Study samples were analyzed together with CS, QC and blank samples (including double blanks). From the calibration curve, the linear range of the analytical method was determined and the lower/upper limits of quantitation were specified.
# The results of blood and brain specimens were subjected to non-compartmental pharmacokinetic analysis using Phoenix WinNonlin 6.3, with the following parameters reported: Calculated concentration of test items in the corresponding formulation (expressed as mg/mL), dose levels (expressed as mg/kg) for each compound, actual collection times (expressed as hh: mM), blood concentrations (expressed as ng/ml) for each compound, brain concentrations (expressed as ng/g) for each compound, PK parameters (iv: Cmax, AUC, CLp, Vss, t1/2, if applicable; oral (po): Cmax, tmax, AUC, F %, Fa %, Eh, AUC BB ratio, if applicable) for each compound, and abnormal clinical signs and relevant findings, if any.
# [1] = plasma, iv, 0.5 mg/kg, 0.5 mg/kg (Table 8)
# [2] = plasma, iv, 0.5 mg/kg, 0.5 mg/kg (Table 9)
# [3] = plasma, iv, 0.5 mg/kg, IV, 0.5 mg/kg (Table 8)
# [4] = plasma, iv, 0.5 mg/kg, IV, 0.5 mg/kg (Table 9)
structure (smiles),measurement,setting,value
"Clc1ccc(C23CNC(CO2)C3)cc1Cl (stereo not shown) [522A, 1-(3,4-dichlorophenyl)-2-oxa-5-azabicyclo[2.2.1]heptane]",Kp uu at 2 h,"brain and blood, 0.5 mg/kg, two hours after IV administration, read-out: concentration ratio of unbound drug in brain to blood (kp, uu)",0.77
same,Kp at 2 h,"brain and plasma, 0.5 mg/kg, two hours after IV administration, read-out: mean brain-to-plasma ratio",4.96
same,Tmax,"plasma, IV, 0.5 mg/kg (Table 8)",0.08 h
same,Tmax,"plasma, oral (PO), 1 mg/kg",2 h
same,bioavailability,"plasma, oral (PO), 1 mg/kg versus IV",30.8%
same,Tlast,"IV, 0.5 mg/kg (Table 8)",8 h
same,Tlast,"IV, 0.5 mg/kg (Table 9)",8 h
same,concentration at 2 h,"brain, iv, 0.5 mg/kg, two hours after IV administration, 0.5 mg/kg, read-out: free concentration in the brain",42.8 nM
same,concentration at 2 h,"brain, iv, 0.5 mg/kg, two hours after IV administration, 0.5 mg/kg, read-out: total concentration in the brain",1930 nM
same,Tlast,"oral (PO), 1 mg/kg",8 h
same,AUC(0-inf),[1],1480 ng·h/mL
same,AUC(0-t),[1],1460 ng·h/mL
same,Cmax,[1],1890 ng/mL
same,clearance,[1],5.71 mL/min/kg
same,half-life,[1],1.36 h
same,AUC(0-inf),[2],799 ng·h/mL
same,AUC(0-t),[2],772 ng·h/mL
same,Cmax,[2],878 ng/mL
same,clearance,[2],11.6 mL/min/kg
same,half-life,[2],1.65 h
same,concentration at 8 h,[3],9.32 ng/mL
same,Vd,[3],0.411 L/kg
same,concentration at 8 h,[4],10.6 ng/mL
same,Vd,[4],1.48 L/kg
same,concentration at 2 h,"plasma, iv, 0.5 mg/kg, two hours after IV administration, 0.5 mg/kg, read-out: free concentration in plasma",71.3 nM
same,concentration at 2 h,"plasma, iv, 0.5 mg/kg, two hours after IV administration, 0.5 mg/kg, read-out: total plasma concentration",594 nM
same,AUC(0-inf),"plasma, po, 1 mg/kg, oral (PO)",509 ng·h/mL
same,AUC(0-t),"plasma, po, 1 mg/kg, oral (PO)",442 ng·h/mL
same,Cmax,"plasma, po, 1 mg/kg, oral (PO)",102 ng/mL
same,half-life,"plasma, po, 1 mg/kg, oral (PO)",2.42 h
same,concentration at 8 h,"plasma, po, 1 mg/kg, oral (PO), 1 mg/kg",19.3 ng/mL
